# Measurements taken from article PMC10391610, “Survivin prevents the polycomb repressor complex 2 from methylating histone 3 lysine 27” (iScience, 2023).
# What was measured:
# [1] = tested on: H3K27me3 / H3K27ac peaks in CD4+ T cells; assay: ChIP-seq of H3K27me3 and H3K27ac after YM155 treatment; assay type: cell-based, human
# Experimental: (§1) Human peripheral blood mononuclear cells were isolated from venous peripheral blood by density gradient separation on Lymphoprep (Axis-Shield PoC As, Dundee, Scotland). CD4^+ cells were isolated by positive selection (Invitrogen, 11331D), and cultured (1.25×10^6 cells/ml) in wells coated with anti-CD3 antibody (0.5 mg/ml; OKT3, Sigma-Aldrich, Saint Luis, Missouri, USA), in RPMI medium supplemented with 50 μM β-mercaptoethanol (Gibco, Waltham, Massachusetts, USA), Glutamax 2 mM (Gibco), Gentamicin 50 μg/ml (Sanofi-Aventis, Paris, France) and 10% fetal bovine serum (Sigma-Aldrich) at 37°C in a humidified 5% CO2 atmosphere. Cells were treated with survivin inhibitors serpantronium bromide, YM155[22] (YM155, Selleck Chemicals, Houston, TX), as indicated. The cells were stimulated with recombinant IFNg (50 ng/ml; Peprotech, Cranbury, NJ, USA) during the last 2 h and harversted for RNA-seq. Supernatants were used to measure cytokine levels.
# For ChIP-seq analysis, CD4^+ cells isolated from 12 women were stimulated with concanavalin A (ConA, 0.625 μg/ml, Sigma-Aldrich), and lipopolysaccharide (LPS) (5 μg/ml, Sigma-Aldrich) for 72 h and pooled in 4 independent samples for DNA purification. After shearing and pre-clearing of chromatin, 1% of the sample was saved as an input. The pre-cleared chromatin was incubated with 2 μg anti-Survivin (10811, Santa Cruz Biotechnology). For ChIPseq targeting histone modifications CD4^+ cells from 3 healthy women were stimulated with concanavalin A and LPS and treated with sepantronium bromide, YM155, 0 or 10 ng/ml, for 24 h. The chromatin was pre-cleared on the beads coated with Sepharose A and incubated with anti-H3K27ac (C15410196, Diagenode), or anti-H3K27me3 (C15410195, Diagenode). The cells were cross-linked and lysed with the EpiTect ChIP OneDay kit (Qiagen), as recommended by the manufacturer. After sonication to shear the chromatin, cellular debris was removed by pelleting. After pre-clearing, 1% of the sample was saved as an input fraction and used as background for nonspecific chromatin binding. Pre-cleared chromatin was incubated with 2 μg of anti-survivin (10811, Santa Cruz Biotechnology, Santa Cruz, CA, USA). The immune complexes were washed, the cross-links were reversed, and the DNA was purified with the EpiTect ChIP OneDay kit (Qiagen) as recommended by the manufacturer. The quality of purified DNA was assessed with TapeStation (Agilent, Santa Clara, CA, USA). DNA libraries were prepared with ThruPLEX (Rubicon) and sequenced with a Hiseq2000 sequencing system (Illumina) according to the manufacturer’s protocols. Bcl-files were converted and demultiplexed to fastq with bcl2fastq (Illumina).
# The fastq sequencing files were mapped to the human reference genome (hg38) using the STAR aligner[58] with default parameters apart from setting the alignIntronMax flag to 1 for end-to-end mapping. Quality control of the sequenced material was performed by FastQC tool using MultiQC v.0.9dev0 (Babraham Institute, Cambridge, U.K.). Peak calling was performed using the default parameters. Peaks were identified for enrichment of the immunoprecipitation fraction against input (adjusted p < 10^−5) and annotated by HOMER software[59] in standard mode to closest transcription start site (TSS). Peaks with overlapping localization by at least 1 nucleotide in several samples were merged and further on referred to as one peak. […]
# [2] = tested on: gene expression in CD4+ cells; assay: RNA-seq after YM155 treatment; assay type: cell-based, human
# Experimental: as §1
# RNA from the CD4^+ cell cultures was prepared using the Norgen Total micro mRNA kit (Norgen, Ontario, Canada). Quality control was done by Bioanalyzer RNA6000 Pico on Agilent2100 (Agilent, Santa Clara, CA, USA). Deep sequencing was done by RNAseq (Hiseq2000, Illumina) at the Science for Life Laboratory, Huddinge, Sweden. Raw sequence data were obtained in Bcl-files and converted into fastq text format using the bcl2fastq program from Illumina.
# Mapping of transcripts was done using Genome UCSC annotation set for hg38 human genome assembly. Analysis was performed using the core Bioconductor packages in R-studio v.3.6.3. Differentially expressed genes in CD4^+ cells treated with YM155 were identified using DESeq2 (v.1.26.0) with Benjamini-Hochberg adjustment for multiple testing.
# Supplementary file mmc2.xlsx: Table S1. Differentially expressed protein coding genes connected to the changeable H3K27me3 peaks in CD4^+ T cells, related to Figure 1 CD4^+ T cells (n=4) were cultured with survivin inhibitor YM155 (0 and 10 ng/ml). Expression was analyzed by RNA-seq and compared by paired DESeq2 test.
# survivin transcription = tested on: survivin transcription; design: method as in PMID 17804712; details: cited from earlier work
# [3] = tested on: XIAP, cIAP2, Bcl-XL, Bcl-2, Bad, p53, cIAP1, STAT3; design: method as in 2 sources, ref 22 = [22]; PMID 17804712; doi:10.1158/0008-5472.CAN-07-1343; 22 Nakahara T. Kita A. Yamanaka K. Mori M. Amino N. Takeuchi M. Tominaga F. Hatakeyama S. Kinoyama I. Matsuhisa A. YM155, a novel small-molecule survivin suppressant, induces regression of established ||| ref 23 = [23]; PMID 18927289; doi:10.1158/1078-0432.CCR-08-0468; 23 Iwasa T. Okamoto I. Suzuki M. Nakahara T. Yamanaka K. Hatashita E. Yamada Y. Fukuoka M. Ono K. Nakagawa K. Radiosensitizing effect of YM155, a novel small-molecule survivin suppressant, in non-smal; details: cited from earlier work
smiles,measurement,setting,value
"COCCn1c2c([n+](Cc3cnccn3)c1C)C(=O)c1ccccc1C2=O [YM155, sepantronium bromide]",H3K27 acetylation after survivin inhibition (in words),"[1]; CD4+ T cells, YM155 10 ng/ml, 24 h",virtually unaffected
same,proportion of H3K27me3 peaks with increased H3K27me3 deposition,"[1]; CD4+ T cells, YM155 10 ng/ml, 24 h, ConA/LPS stimulated",85%
same,"increase in tag counts, middle H3K27me3 peak (first)","[1]; HOX-B cluster, chromosome 17",51%
same,"increase in tag counts, middle H3K27me3 peak (second)","[1]; HOX-B cluster, chromosome 17",69%
same,number of H3K27me3 peaks that increased the count by 30%,[1]; YM155-treated CD4+ cell cultures,7413
same,caudal HOX-B gene expression (in words),"[2]; HOX-B8, -B9, and -B13, YM155, CD4+ cells","a change of the HOX-B genes, which was clearly seen in the caudal HOX-B8, -B9, and -B13 genes"
same,number of genes downregulated (of 157),"[2]; genes connected to changed H3K27me3 peaks, YM155-treated CD4+ cells",100
same,number of protein-coding genes with significantly changed mRNA levels,"[2]; genes connected to regulatory elements at changed H3K27me3 peaks, nominal p < 0.01, YM155-treated CD4+ cells",157
same,effect on survivin transcription (in words),survivin transcription,specifically inhibits survivin transcription
same,"effect on expression of XIAP, cIAP2, Bcl-XL, Bcl-2, Bad (in words)",[3],does not change the expression
same,"effect on expression of p53, cIAP1, STAT3 (in words)",[3],does not change the expression
